{"source": "patent US9624170B2", "about": "“4-(piperrazin-1-yl)-pyrrolidin-2-one compounds as monoacylglycerol lipase (MAGL) inhibitors” (TAKEDA PHARMACEUTICAL COMPANY LIMITED, priority 2013, dated 2017)", "key": {"human MAGL (His-hMAGL) [1]": {"target": "T1, human MAGL (His-hMAGL) (Homo sapiens, UniProt Q99685)", "T1 construct": "made in house; host or cells: Escherichia coli BL21(DE3)", "T1 sequence (Q99685 1-303)": "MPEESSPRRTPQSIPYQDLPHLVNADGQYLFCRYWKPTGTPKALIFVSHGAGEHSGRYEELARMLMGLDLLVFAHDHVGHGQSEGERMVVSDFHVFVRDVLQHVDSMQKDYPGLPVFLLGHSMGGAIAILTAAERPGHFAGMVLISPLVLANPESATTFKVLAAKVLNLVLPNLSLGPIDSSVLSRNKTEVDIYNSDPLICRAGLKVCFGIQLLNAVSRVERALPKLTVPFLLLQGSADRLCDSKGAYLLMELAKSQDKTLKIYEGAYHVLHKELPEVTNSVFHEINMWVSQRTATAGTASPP", "experiment": "Measurement of MAGL inhibitory activity by absorbance", "type": "biochemical", "conditions": "10 μM test compound; substrate p-nitrophenyl acetate, absorbance at 405 nm", "source_text": "(1) Cloning of Human MGLL Encoding MAGL Protein and Construction of Expression Plasmid\nHuman MGLL cDNA was obtained by PCR using human ORF Clone (DNAForm; Clone ID: 100004585) as a template. For PCR, two kinds of primers: […]\nThe obtained PCR product was digested with Bam HI and Not I (Takara Bio Inc.), inserted into the Bam HI/Not I site of pET21HH(V) (pET21a (Novagen) inserted with His x6 and TEV Protease recognition sequence) by using Ligation High (Toyobo Co., Ltd.), and introduced into ECOS™ JM109 (Nippon Gene Co., Ltd.), whereby expression plasmid pET21HH(V)/His-hMGLLv2 for Escherichia coli was constructed. (2) Preparation of Recombinant Polyhistidine Tagged Human MAGL Protein\nRecombinant His-hMAGL protein was prepared by transforming ECOS™ Competent E. coli BL21(DE3) (Nippon Gene Co., Ltd.) with the pET21HH(V)/His-hMGLLv2 plasmid prepared above. Escherichia coli obtained by transformation was inoculated to 10 mL of LB medium (1% peptone, 0.5% yeast extract, 0.5% sodium chloride, 0.01% ampicillin), and cultured at 30° C. for 16 hr. […] When the turbidity of the culture medium reached about 500 Klett unit, the culture temperature was lowered to 16° C., isopropyl-β-D-thiogalactopyranoside (IPTG) was added to a final concentration of 1 mM, and the mixture was further cultured for 19 hr. After the completion of culture, the culture medium was centrifuged (4° C., 6,000 rpm, 10 min) to give His-hMAGL expression Escherichia coli. Then, His-hMAGL expression Escherichia coli was suspended in 50 mM Tris-HCl (pH 8.0, 100 ml) containing 1% Triton X-100, 20 mM imidazole, 3 mM DTT, 5 U/mL Benzonase (Merck) and 150 mM NaCl, sufficiently cooled, and subjected to sonication at […]=60%, 15 sec/ON, 30 sec/OFF for 3 min using ¾″ solid type crushed horn of BRANSON Digital Sonifier 450 (Central Scientific Commerce, Inc.). Furthermore, the homogenate was centrifuged (4° C., 15,000 rpm, 15 min) and the supernatant was obtained. As the purification apparatus, AKTA explorer 10s (GE Healthcare Japan Corporation) was used at 4° C. To the obtained supernatant was added 5M NaCl to the final salt concentration of 0.3 M, and the mixture was flown through and adsorbed to 5 mL of Ni-NTA Superflow Cartridges (QIAGEN) equilibrated in advance with buffer A (50 mM Tris-HCl (pH 8.0) containing 0.05% TritonX-100, 1 mM DTT, 300 mM NaCl). The column was sufficiently washed with buffer A containing 20 mM imidazole and His-hMAGL was eluted with buffer A containing imidazole at a final concentration of 250 mM. The eluate was further subjected to gel filtration using HiLoad 26/600 Superdex 200 pg (GE Healthcare Japan Corporation) equilibrated with 50 mM Tris-HCl pH 8.0 containing 10% glycerol, 0.05% TritonX-100, 1 mM DTT, 150 mM NaCl. The eluted fraction was concentrated by Amicon Ultra-15 10K (Merck Millipore) to give purified His-hMAGL protein. The protein concentration was measured by BCA Protein Assay Kit (Thermo Fisher Scientific) using BSA as the standard.\n(3) Measurement of MAGL Inhibitory Activity\nHis-hMAGL obtained above was diluted with enzyme reaction buffer (10 mM Tris-HCl, pH 7.5, 1 mM EDTA, 0.1 (w/v) % Triton X-100) to a concentration of 60 ng/mL. […] Thereafter, to each well was added 750 μM p-nitrophenyl acetate (Wako Pure Chemical Industries, Ltd.) by 5 μL, and the absorbance at 405 nm was measured every 2 minutes up to 10 minutes by EnVision (PerkinElmer). The amount of change was obtained by subtracting the absorbance measured immediately after the start of the reaction from the absorbance measured 10 min after the start of the reaction.\nMAGL inhibitory rate (%) was calculated according to the following calculation formula. (1−(absorbance change amount of test compound addition group−absorbance change amount of enzyme addition-free group)[…](absorbance change amount of test compound addition-free group−absorbance change amount of enzyme addition-free group))×100"}, "human MAGL (His-hMAGL) [2]": {"target": "T1, human MAGL (His-hMAGL)", "experiment": "Measurement of MAGL inhibitory activity by mass spectrometry", "type": "biochemical", "conditions": "10 μM test compound; substrate 2-arachidonylglycerol, arachidonic acid by RapidFire-mass spectrometry", "procedure,_shortened": "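His-tagged human MAGL was reacted with 150 μM 2-arachidonylglycerol substrate (stock, added by 5 μL) for 10 min at room temperature, then stopped with formic acid. Arachidonic acid product was quantified by RapidFire–triple-quadrupole MS in negative SRM mode, corrected by arachidonic acid-d8, and converted to percent inhibition.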"}, "[3]": {"tested_on": "Gfap, IL-1β, IL-6 gene expression in hippocampus", "experiment": "Measurement of gene expression in hippocampus of kainic acid intraventricular administration rat", "type": "in vivo", "conditions": "SD rats, 30 mg/kg by gavage, hippocampus 24 hr after administration"}}, "data": [{"smiles": "O=C(c1nccs1)N1CCN(C2CC(=O)N(c3cccc(Nc4ccc(F)cc4)c3)C2)CC1", "note": "(centres unmarked) [Example 77, 1-(3-((4-Fluorophenyl)amino)phenyl)-4-(4-(1,3-thiazol-2-ylcarbonyl)piperazin-1-yl)pyrrolidin-2-one]", "values": [{"measurement": "inhibition at 10 µM", "setting": "human MAGL (His-hMAGL) [1]", "value": 96, "unit": "%"}]}, {"smiles": "O=C(c1nccs1)N1CCN(C2CC(=O)N(c3cccc(Oc4ccc(F)cc4)c3)C2)CC1", "note": "(centres unmarked) [Example 79, 1-(3-(4-Fluorophenoxy)phenyl)-4-(4-(1,3-thiazol-2-ylcarbonyl)piperazin-1-yl)pyrrolidin-2-one]", "values": [{"measurement": "inhibition at 10 µM", "setting": "human MAGL (His-hMAGL) [1]", "value": 95, "unit": "%"}]}, {"smiles": "O=C(c1nccs1)N1CCN([C@@H]2CC(=O)N(c3ccc4c(ccn4-c4ncc(C(F)(F)F)cn4)c3)C2)CC1", "note": "[Example 80, (4R)-4-(4-(1,3-Thiazol-2-ylcarbonyl)piperazin-1-yl)-1-(1-(5-(trifluoromethyl)pyrimidin-2-yl)-1H-indol-5-yl)pyrrolidin-2-one]", "values": [{"measurement": "inhibition at 10 µM", "setting": "human MAGL (His-hMAGL) [1]", "value": 100, "unit": "%"}, {"measurement": "inhibition at 10 µM", "setting": "human MAGL (His-hMAGL) [2]", "value": 97, "unit": "%"}]}, {"smiles": "O=C(c1nccs1)N1CCN(C2CC(=O)N(c3ccc4c(cnn4-c4ccc(F)cn4)c3)C2)CC1", "note": "(centres unmarked) [Example 81, 1-(1-(5-fluoropyridin-2-yl)-1H-indazol-5-yl)-4-(4-(1,3-thiazol-2-ylcarbonyl)piperazin-1-yl)pyrrolidin-2-one]", "values": [{"measurement": "inhibition at 10 µM", "setting": "human MAGL (His-hMAGL) [1]", "value": 97, "unit": "%"}]}, {"smiles": "O=C(c1nccs1)N1CCN(C2CC(=O)N(c3ccc4c(ccn4-c4ccc(F)cn4)c3)C2)CC1", "note": "(centres unmarked) [Example 82, 1-(1-(5-fluoropyridin-2-yl)-1H-indol-5-yl)-4-(4-(1,3-thiazol-2-ylcarbonyl)piperazin-1-yl)pyrrolidin-2-one]", "values": [{"measurement": "inhibition at 10 µM", "setting": "human MAGL (His-hMAGL) [1]", "value": 95, "unit": "%"}]}, {"smiles": "O=C(c1nccs1)N1CCN(C2CC(=O)N(c3ccc4c(ccn4-c4ncc(F)cn4)c3)C2)CC1", "note": "(centres unmarked) [Example 83, 1-(1-(5-fluoropyrirnidin-2-yl)-1H-indol-5-yl)-4-(4-(1,3-thiazol-2-ylcarbonyl)piperazin-1-yl)pyrrolidin-2-one]", "values": [{"measurement": "inhibition at 10 µM", "setting": "human MAGL (His-hMAGL) [1]", "value": 96, "unit": "%"}]}, {"smiles": "O=C(c1nccs1)N1CCN(C2CC(=O)N(c3ccc4c(ccn4-c4ncc(Cl)cn4)c3)C2)CC1", "note": "(centres unmarked) [Example 84, 1-(1-(5-chloropyrirnidin-2-yl)-1H-indol-5-yl)-4-(4-(1,3-thiazol-2-ylcarbonyl)piperazin-1-yl)pyrrolidin-2-one]", "values": [{"measurement": "inhibition at 10 µM", "setting": "human MAGL (His-hMAGL) [1]", "value": 96, "unit": "%"}]}, {"smiles": "O=C(c1nccs1)N1CCN(C2CC(=O)N(c3ccc4c(cnn4-c4ccc(F)cc4)c3)C2)CC1", "note": "(centres unmarked) [Example 85, 1-(1-(4-Fluorophenyl)-1H-indazol-5-yl)-4-(4-(1,3-thiazol-2-ylcarbonyl)piperazin-1-yl)pyrrolidin-2-one]", "values": [{"measurement": "inhibition at 10 µM", "setting": "human MAGL (His-hMAGL) [1]", "value": 99, "unit": "%"}]}, {"smiles": "O=C(c1nccs1)N1CCN(C2CC(=O)N(c3ccc4c(cnn4-c4ccc(Cl)cn4)c3)C2)CC1", "note": "(centres unmarked) [Example 86, 1-(1-(5-chloropyridin-2-yl)-1H-indazol-5-yl)-4-(4-(1,3-thiazol-2-ylcarbonyl)piperazin-1-yl)pyrrolidin-2-one]", "values": [{"measurement": "inhibition at 10 µM", "setting": "human MAGL (His-hMAGL) [1]", "value": 99, "unit": "%"}]}, {"smiles": "O=C(c1nccs1)N1CCN(C2CC(=O)N(c3ccc4c(ccn4-c4ccc(Cl)cn4)c3)C2)CC1", "note": "(centres unmarked) [Example 87, 1-(1-(5-chloropyridin-2-yl)-1H-indol-5-yl)-4-(4-(1,3-thiazol-2-ylcarbonyl)piperazin-1-yl)pyrrolidin-2-one]", "values": [{"measurement": "inhibition at 10 µM", "setting": "human MAGL (His-hMAGL) [1]", "value": 98, "unit": "%"}]}, {"smiles": "O=C(c1nccs1)N1CCN([C@@H]2CC(=O)N(c3ccc4c(ccn4-c4ncc(C(F)(F)F)cn4)c3)C2)CC1", "note": "[compound 1, (4R)-4-(4-(1,3-thiazol-2-ylcarbonyl)piperazin-1-yl)-1-(1-(5-(trifluoromethyl)pyrimidin-2-yl)-1H-indol-5-yl)pyrrolidin-2-one]", "values": [{"measurement": "effect to decrease expression of a gene of glial fibrillary acidic protein (GFAP) (FIG. 3)", "setting": "[3]", "value": "decrease expression"}, {"measurement": "effect to decrease expression of a gene of interleukin 1β (IL-1β) (FIG. 4)", "setting": "[3]", "value": "decrease expression"}, {"measurement": "effect to decrease expression of a gene of interleukin 6 (IL-6) (FIG. 5)", "setting": "[3]", "value": "decrease expression"}]}]}
